Paper PMC9578396, “Intrinsic Antibacterial Activity of Xeruborbactam In Vitro: Assessing Spectrum and Mode of Action” (Antimicrobial Agents and Chemotherapy, 2022)
Like-named read-outs stand apart in the source and are kept apart here.

Key:
Acinetobacter baumannii = assay: Broth microdilution MIC (CLSI), Acinetobacter baumannii; type: cell-based; conditions: Acinetobacter baumannii
How it was run: (§1)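 Test organisms were KPC-producing clinical isolates (some enriched for porin mutations), matched isolates that lost KPC plasmids, and engineered porin/efflux mutant strains. Susceptibility was measured by broth microdilution following CLSI methods, using panels prepared in-house.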

[1] = system: A. baumannii strain ATCC 17978; assay: Fluorescence microscopy, cellular morphology; type: cell-based, Acinetobacter baumannii; conditions: xeruborbactam, meropenem 1× and 2× MIC; aztreonam 2× MIC; amdinocillin 2 μg/mL
Description: (§2) Single colonies of K. pneumoniae strain KPM1026a, A. baumannii strain ATCC 17978, and P. aeruginosa strain PAM1154 were picked from LB agar plates, inoculated in cation-adjusted Mueller-Hinton broth (CA-MHB), and incubated overnight at 30°C with rolling. Overnight cultures were diluted into fresh CA-MHB and incubated at 30°C, with rolling, until they reached an OD600 of ≈0.12 to 0.15 (equivalent to ~2 × 10^8 CFU/mL). Samples were then treated with compounds and incubated at 30°C, with rolling. After 1 or 2 h of treatment, cells were collected and stained with a dye mix containing FM4-64 (1 μg/mL), DAPI (4′,6-diamidino-2-phenylindole) (2 μg/mL), and SYTOX green (0.5 μM) (Molecular Probes, Invitrogen, or Thermo Fisher Scientific). Cells were transferred onto an agarose pad containing 1.2% agarose and 20% LB medium for microscopy. Microscopy was performed as previously described ([34]).

Pseudomonas aeruginosa = assay: Broth microdilution MIC (CLSI), Pseudomonas aeruginosa; type: cell-based
How it was run: as §1

Escherichia coli = assay: Broth microdilution MIC (CLSI), Escherichia coli; type: cell-based
How it was run: as §1

Klebsiella pneumoniae = assay: microbe, parasite or virus in culture; type: cell-based
How it was run: as §1

[2] = system: K. pneumoniae strain KPM1026a; assay: Fluorescence microscopy, cellular morphology; type: cell-based, Klebsiella pneumoniae; conditions: treated at 1× and 2× MIC, 1 to 2 h, 30°C
Description: as §2

[3] = ATCC17978, strain ATCC 17978 (Fig. 6), read-out: MIC

## C[C@H]1[C@H](NC(=O)/C(=N\OC(C)(C)C(=O)O)c2csc(N)n2)C(=O)N1S(=O)(=O)O [Aztreonam]
Acinetobacter baumannii; AB1007 (no beta-lactamase), xeruborbactam 0 µg/ml, read-out: MIC
  MIC: 32 µg/mL
Acinetobacter baumannii; AB1007, xeruborbactam 2 µg/ml, read-out: MIC
  MIC: 32 µg/mL
Acinetobacter baumannii; AB1007, xeruborbactam 4 µg/ml, read-out: MIC
  MIC: 16 µg/mL
Acinetobacter baumannii; AB1007, xeruborbactam 8 µg/ml, read-out: MIC
  MIC: 4 µg/mL
Acinetobacter baumannii; [3]
  MIC: 32 µg/mL
Acinetobacter baumannii; strain AB1007, wild type, read-out: MIC
  MIC: 32 µg/mL
Acinetobacter baumannii; strain ACM1013, ΔadeIJK
  MIC: 1 µg/mL
Acinetobacter baumannii; strain ACM1014, ΔadeABC
  MIC: 16 µg/mL
Acinetobacter baumannii; strain ACM1015, ΔadeIJK ΔadeABC
  MIC: 1 µg/mL
Acinetobacter baumannii; strain ACM1027, adeN (AdeIJK overexpression)
  MIC: 64 µg/mL
Acinetobacter baumannii; strain ACM1030, adeS (AdeABC overexpression)
  MIC: 16 µg/mL
[1]
  cellular morphology: increase in cell length
Pseudomonas aeruginosa; PAM1154 (oprM::Hg), xeruborbactam 0 µg/ml
  MIC: 0.5 µg/mL
Pseudomonas aeruginosa; Pseudomonas aeruginosa, strain 1089003, alone, read-out: MIC
  MIC: 0.5 µg/mL
Pseudomonas aeruginosa; Pseudomonas aeruginosa, strain 1097436, alone, read-out: MIC
  MIC: 64 µg/mL
Pseudomonas aeruginosa; Pseudomonas aeruginosa, strain 1098916, alone, read-out: MIC
  MIC: 0.5 µg/mL
Pseudomonas aeruginosa; Pseudomonas aeruginosa, strain 1104168, alone, read-out: MIC
  MIC: 1 µg/mL
Pseudomonas aeruginosa; Pseudomonas aeruginosa, strain 1104284, alone, read-out: MIC
  MIC: 0.5 µg/mL
Pseudomonas aeruginosa; Pseudomonas aeruginosa, strain 1106973, alone, read-out: MIC
  MIC: 2 µg/mL
Pseudomonas aeruginosa; Pseudomonas aeruginosa, strain 1109744, alone, read-out: MIC
  MIC: 0.5 µg/mL
Pseudomonas aeruginosa; Pseudomonas aeruginosa, strain 1113238, alone, read-out: MIC
  MIC: 32 µg/mL
Pseudomonas aeruginosa; Pseudomonas aeruginosa, strain 1113634, alone, read-out: MIC
  MIC: 4 µg/mL
Pseudomonas aeruginosa; Pseudomonas aeruginosa, strain 1116835, alone, read-out: MIC
  MIC: 0.5 µg/mL
Pseudomonas aeruginosa; Pseudomonas aeruginosa, strain 1116849, alone, read-out: MIC
  MIC: 2 µg/mL
Pseudomonas aeruginosa; Pseudomonas aeruginosa, strain 1118234, alone, read-out: MIC
  MIC: 32 µg/mL
Pseudomonas aeruginosa; Pseudomonas aeruginosa, strain 1119418, alone, read-out: MIC
  MIC: 32 µg/mL
Pseudomonas aeruginosa; Pseudomonas aeruginosa, strain 1125954, alone, read-out: MIC
  MIC: 1 µg/mL
Pseudomonas aeruginosa; Pseudomonas aeruginosa, strain 1125996, alone, read-out: MIC
  MIC: > 64 µg/mL
Pseudomonas aeruginosa; Pseudomonas aeruginosa, strain 1126521, alone, read-out: MIC
  MIC: 0.5 µg/mL
Pseudomonas aeruginosa; Pseudomonas aeruginosa, strain 1126957, alone, read-out: MIC
  MIC: > 64 µg/mL
Pseudomonas aeruginosa; Pseudomonas aeruginosa, strain 1126982, alone, read-out: MIC
  MIC: 0.5 µg/mL
Pseudomonas aeruginosa; Pseudomonas aeruginosa, strain 1128636, alone, read-out: MIC
  MIC: 2 µg/mL
Pseudomonas aeruginosa; Pseudomonas aeruginosa, strain 1128674, alone, read-out: MIC
  MIC: 4 µg/mL
Pseudomonas aeruginosa; Pseudomonas aeruginosa, strain 1130447, alone, read-out: MIC
  MIC: > 64 µg/mL
Pseudomonas aeruginosa; Pseudomonas aeruginosa, strain PAM1020, wild type, read-out: MIC
  MIC: 4 µg/mL
Pseudomonas aeruginosa; Pseudomonas aeruginosa, strain PAM1032, nalB (MexAB-OprM overexpression)
  MIC: 16 µg/mL
Pseudomonas aeruginosa; Pseudomonas aeruginosa, strain PAM1033, nfxB (MexCD-OprJ overexpression)
  MIC: 1 µg/mL
Pseudomonas aeruginosa; Pseudomonas aeruginosa, strain PAM1034, nfxC (MexEF-OprN overexpression)
  MIC: 4 µg/mL
Escherichia coli; EC1078, PBP2 same as MG1655, PBP3 I332V
  MIC: 64
Escherichia coli; EC1081, PBP2 same as MG1655, PBP3 Q227H
  MIC: 64
Escherichia coli; EC1085, PBP2 T331P, PBP3 A233T I332V
  MIC: 2
Escherichia coli; EC1088, PBP2 A308G, PBP3 same as MG1655
  MIC: > 64
Escherichia coli; EC1097, PBP2 M574I, PBP3 Q227H
  MIC: > 64
Escherichia coli; EC1098, PBP2 V217M, PBP3 YRIN ins, I532L
  MIC: 64
Escherichia coli; EC1103, PBP2 same as MG1655, PBP3 YRIN ins, Q227H, E349K, I532L
  MIC: 32
Escherichia coli; EC1105, PBP2 A543T, PBP3 YRIN ins, Q227H, E349K, I532L
  MIC: > 64
Escherichia coli; EC1119, PBP2 same as MG1655, PBP3 YRIN ins, Q227H, E349K, I532L
  MIC: > 64
Escherichia coli; EC1121, PBP2 V217M, PBP3 YRIN ins, E349K, I532L
  MIC: > 64
Escherichia coli; Escherichia coli, strain ECM5497, wild type, read-out: MIC
  MIC: 0.03 µg/mL
Escherichia coli; Escherichia coli, strain ECM6001, ΔacrB
  MIC: 0.03 µg/mL

## CC1(C)S[C@@H]2[C@H](/N=C/N3CCCCCC3)C(=O)N2[C@H]1C(=O)O [Mecillinam]
Acinetobacter baumannii; [3]
  MIC: 128 µg/mL
Acinetobacter baumannii; ATCC17978, strain ATCC 17978, read-out: MIC
  MIC: > 256 µg/mL
[1]
  cellular morphology: bacterial cell rounding but not swelling
Pseudomonas aeruginosa; Pseudomonas aeruginosa, strain PAM1154 (Fig. 6), read-out: MIC
  MIC: 128 µg/mL
Klebsiella pneumoniae; KPM1026a (no beta-lactamase), xeruborbactam 0 µg/ml
  MIC: 0.25 µg/mL
Klebsiella pneumoniae; KPM1026a, xeruborbactam 2 µg/ml
  MIC: 0.25 µg/mL
Klebsiella pneumoniae; KPM1026a, xeruborbactam 4 µg/ml
  MIC: 0.125 µg/mL
Klebsiella pneumoniae; KPM1026a, xeruborbactam 8 µg/ml
  MIC: 0.06 µg/mL
Klebsiella pneumoniae; Klebsiella pneumoniae, KPM1026a, alone, read-out: MIC
  MIC: 0.25 µg/mL
Klebsiella pneumoniae; Klebsiella pneumoniae, KPM1026a, parent, read-out: MIC
  MIC: 0.25 µg/mL
Klebsiella pneumoniae; Klebsiella pneumoniae, KPM3532 (TolQ::M189K), alone
  MIC: > 64 µg/mL
Klebsiella pneumoniae; Klebsiella pneumoniae, KPM3532, TolQ::M189K
  MIC: > 64 µg/mL
Klebsiella pneumoniae; Klebsiella pneumoniae, KPM3534 (TolQ::S31F), alone
  MIC: > 64 µg/mL
Klebsiella pneumoniae; Klebsiella pneumoniae, KPM3534, TolQ::S31F
  MIC: > 64 µg/mL
Klebsiella pneumoniae; Klebsiella pneumoniae, KPM4235, TolQ::IP(183–1844)PR
  MIC: > 64 µg/mL
Klebsiella pneumoniae; Klebsiella pneumoniae, KPM4236, TolQ::TAA at aa 103
  MIC: > 64 µg/mL
Klebsiella pneumoniae; Klebsiella pneumoniae, KPM4238, TolQ::S25F
  MIC: > 64 µg/mL
Klebsiella pneumoniae; Klebsiella pneumoniae, KPM4239, TolQ::S28F
  MIC: > 64 µg/mL
Klebsiella pneumoniae; Klebsiella pneumoniae, KPM4240, TolQ::S25Y
  MIC: > 64 µg/mL
Klebsiella pneumoniae; Klebsiella pneumoniae, strain KPM1026a measured at 30°C (Fig. 6), read-out: MIC
  MIC: 128 µg/mL
[2]
  cellular morphology: cell rounding
